Here are results for 22 compounds from PubChem BioAssay AID330 (DTP/NCI, 2004).

Values joined by “and” are separate entries in the source; they are usually repeats but may differ in a detail not shown here. Identical values can stand only once. Toxic doses and inconclusive results are not listed.

The assay has as its system P388 leukemia ip, CD2F1 mice, survival T/C. Kind of assay: NCI In Vivo Anticancer Drug Screen. Data for tumor model P388 Leukemia (intraperitoneal) in CD2F1 (CDF1) mice. As to conditions: endpoint: median survival time, higher = longer survival. The method in brief:
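Mice carrying the transplanted tumor received test compound or vehicle. Survival was recorded in each group, and the value is the treated-group measurement divided by that of the vehicle-treated control group.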

[1] abbreviates: dose: 60.0 mg/kg/injection, schedule: Q01DX005 (ip), vehicle: saline with Tween-80.
Setting [2] is: dose: 120.0 mg/kg/injection, schedule: Q01DX005 (ip), vehicle: saline with Tween-80.
Setting [3] is: dose: 240.0 mg/kg/injection, schedule: Q01DX005 (ip), vehicle: saline with Tween-80.
The mark [4] stands for this setting: dose: 50.0 mg/kg/injection, schedule: Q01DX009 (ip), vehicle: saline with Tween-80.
Where [5] appears, read: dose: 100.0 mg/kg/injection, schedule: Q01DX009 (ip), vehicle: saline with Tween-80.
Setting [6] is: dose: 200.0 mg/kg/injection, schedule: Q01DX009 (ip), vehicle: saline with Tween-80.
Where [7] appears, read: dose: 50.0 mg/kg/injection, schedule: Q01DX009 (ip), vehicle: saline.
Setting [8] is: dose: 100.0 mg/kg/injection, schedule: Q01DX009 (ip), vehicle: saline.
The mark [9] stands for this setting: dose: 200.0 mg/kg/injection, schedule: Q01DX009 (ip), vehicle: saline.
[10] abbreviates: dose: 50.0 mg/kg/injection, schedule: Q01DX009 (ip), vehicle: Klucel (hydroxypropylcellulose) (HPC).
Where [11] appears, read: dose: 100.0 mg/kg/injection, schedule: Q01DX009 (ip), vehicle: Klucel (hydroxypropylcellulose) (HPC).
[12] abbreviates: dose: 50.0 mg/kg/injection, schedule: Q01DX005 (ip), vehicle: saline with Tween-80.
Setting [13] is: dose: 100.0 mg/kg/injection, schedule: Q01DX005 (ip), vehicle: saline with Tween-80.
Where [14] appears, read: dose: 200.0 mg/kg/injection, schedule: Q01DX005 (ip), vehicle: saline with Tween-80.
Where [15] appears, read: dose: 200.0 mg/kg/injection, schedule: Q01DX009 (ip), vehicle: Klucel (hydroxypropylcellulose) (HPC).

With `C=C(C)[C@]12CC(C)C34OC(/C=C\C=C\CCCCCCCCC)(O[C@@H]1[C@@H]3[C@@H]1O[C@]1(CO)[C@@H](O)[C@]1(O)C(=O)C(C)=C[C@@H]41)O2` (stereo not given in full), the T/C is, setting by setting: (dose: 0.75 mg/kg/injection, schedule: Q01DX009 (ip), vehicle: alcohol) 160 % of control; (dose: 1.5 mg/kg/injection, schedule: Q01DX009 (ip), vehicle: alcohol) 160 % of control and 163 % of control.

As for `CCOC(=O)c1cnc2c(C(F)(F)F)cccc2c1N=[N+]=[N-]`, the T/C is, setting by setting: under setting [1], 99 % of control; under setting [2], 96 % of control; under setting [3], 95 % of control.

Regarding `O=[N+]([O-])c1cc2[nH]cnc2c([N+](=O)[O-])c1NCCO`, the T/C by setting is: under setting [4], 110 % of control; under setting [5], 108 % of control; under setting [6], 94 % of control.

As to `CC(=O)CC(=O)OCc1ccccc1`, the T/C was 100 % of control (dose: 100.0 mg/kg/injection, schedule: Q04DX003 (ip), vehicle: saline with Tween-80); 100 % of control (dose: 200.0 mg/kg/injection, schedule: Q04DX003 (ip), vehicle: saline with Tween-80); 100 % of control (dose: 400.0 mg/kg/injection, schedule: Q04DX003 (ip), vehicle: saline with Tween-80).

`O=C(CCSc1ncnc2nc[nH]c12)c1ccccc1`: the T/C by setting is: under setting [7], 94 % of control; under setting [8], 92 % of control; under setting [9], 86 % of control.

For `CCOC(=O)c1ccc(NC(=O)SC2=NCCS2)cc1`, the T/C by setting is: under setting [10], 101 % of control; under setting [11], 103 % of control.

In the case of `COCCN=NNc1ccc(C#N)cc1`, the T/C is, setting by setting: (dose: 12.5 mg/kg/injection, schedule: Q01DX009 (ip), vehicle: distilled water + Tween-80) 100 % of control; (dose: 25.0 mg/kg/injection, schedule: Q01DX009 (ip), vehicle: distilled water + Tween-80) 105 % of control; (dose: 50.0 mg/kg/injection, schedule: Q01DX009 (ip), vehicle: distilled water + Tween-80) 101 % of control; (dose: 100.0 mg/kg/injection, schedule: Q01DX009 (ip), vehicle: distilled water + Tween-80) 97 % of control.

As for `CSC(=S)N/N=C(\C)c1cccs1`, the T/C is, setting by setting: under setting [4], 91 % of control; under setting [5], 111 % of control; under setting [6], 110 % of control.

In the case of `CCN(CC)CCCNc1cnc2ccc(OC)cc2n1`, the T/C was 94 % of control (dose: 25.0 mg/kg/injection, schedule: Q04DX003 (ip), vehicle: saline); 91 % of control (dose: 50.0 mg/kg/injection, schedule: Q04DX003 (ip), vehicle: saline); 103 % of control (dose: 100.0 mg/kg/injection, schedule: Q04DX003 (ip), vehicle: saline).

As for `COc1ccc(C(CC(=O)O)c2cc3c(cc2OC)OCO3)cc1` (stereo not given), the T/C was 94 % of control (dose: 50.0 mg/kg/injection, schedule: Q01DX005 (ip), vehicle: distilled water + Tween-80); 96 % of control (dose: 100.0 mg/kg/injection, schedule: Q01DX005 (ip), vehicle: distilled water + Tween-80); 90 % of control (dose: 200.0 mg/kg/injection, schedule: Q01DX005 (ip), vehicle: distilled water + Tween-80).

With `NC(=S)N/N=C\C(CC(O)CO)=N\NC(N)=S` (stereo not given), the T/C reads like this: under setting [12], 101 % of control; under setting [13], 101 % of control; under setting [14], 93 % of control.

On to `O=C(NNC(=O)C(Cl)Cl)c1ccccn1`, for which the T/C under setting [10] was 99 % of control, the T/C under setting [11] was 101 % of control and the T/C under setting [15] is 109 % of control.

As to `N#CC1=C(O)/C(=C\C=C\c2ccccc2)N(C(=O)c2ccccc2)C1=N`, the T/C reads like this: under setting [1], 105 % of control; under setting [2], 100 % of control; under setting [3], 104 % of control.

As for `CCOC1=CS(C)(=O)=NC(SC)=C1C#N` (stereo not given), the T/C is, setting by setting: (dose: 50.0 mg/kg/injection, schedule: Q01DX001 (ip), vehicle: Klucel (hydroxypropylcellulose) (HPC)) 99 % of control; (dose: 100.0 mg/kg/injection, schedule: Q01DX001 (ip), vehicle: Klucel (hydroxypropylcellulose) (HPC)) 105 % of control; (dose: 200.0 mg/kg/injection, schedule: Q01DX001 (ip), vehicle: Klucel (hydroxypropylcellulose) (HPC)) 99 % of control.

As to `COc1cc2c[n+](C)c3c4cc(OC)c(OCc5ccccc5)cc4c(OCc4ccccc4)cc3c2cc1OC`, the T/C (dose: 3.12 mg/kg/injection, schedule: Q01DX005 (ip), vehicle: Klucel (hydroxypropylcellulose) (HPC)) was 100 % of control; the T/C (dose: 6.25 mg/kg/injection, schedule: Q01DX005 (ip), vehicle: Klucel (hydroxypropylcellulose) (HPC)) was 100 % of control; the T/C (dose: 12.5 mg/kg/injection, schedule: Q01DX005 (ip), vehicle: Klucel (hydroxypropylcellulose) (HPC)) was 98 % of control.

As for `C=C1CN(C(=O)c2ccccc2)C(=S)S1`, the T/C is 108 % of control under setting [12], 108 % of control under setting [13] and 103 % of control under setting [14].

Turning to `CCCCN1C(=O)CC(=O)N(c2ccccc2)C1=O`, the T/C was 99 % of control under setting [7], 103 % of control under setting [8] and 93 % of control under setting [9].

`CCCCCCCCCCCCCCCCS(=O)(=O)N/N=C(\c1ccc(O)c(OC)c1)N1CCOCC1`: the T/C by setting is: under setting [10], 110 % of control; under setting [11], 101 % of control; under setting [15], 96 % of control.

On to `Nc1cc2ccccc2c(Br)n1`, for which the T/C is, setting by setting: (dose: 100.0 mg/kg/injection, schedule: Q01DX001 (ip), vehicle: saline with Tween-80) 100 % of control; (dose: 200.0 mg/kg/injection, schedule: Q01DX001 (ip), vehicle: saline with Tween-80) 95 % of control; (dose: 400.0 mg/kg/injection, schedule: Q01DX001 (ip), vehicle: saline with Tween-80) 100 % of control.

`N#Cc1c(-c2ccccc2)c(-c2ccccc2)nn(CCC(=O)O)c1=O`: the T/C runs as follows: (dose: 25.0 mg/kg/injection, schedule: Q04DX002 (ip), vehicle: distilled water + Tween-80) 101 % of control; (dose: 50.0 mg/kg/injection, schedule: Q04DX002 (ip), vehicle: distilled water + Tween-80) 102 % of control; (dose: 100.0 mg/kg/injection, schedule: Q04DX002 (ip), vehicle: distilled water + Tween-80) 108 % of control.

For `COc1ccccc1C(C)c1cc2c(cc1OC)OCO2` (stereo not given), the T/C was 100 % of control under setting [12], 101 % of control under setting [13] and 93 % of control under setting [14].

As for `Cc1ccc(S(=O)(=O)NC(=O)O/N=C/c2ccco2)cc1`, the T/C is 98 % of control (dose: 50.0 mg/kg/injection, schedule: Q01DX005 (ip), vehicle: Klucel (hydroxypropylcellulose) (HPC)); 98 % of control (dose: 100.0 mg/kg/injection, schedule: Q01DX005 (ip), vehicle: Klucel (hydroxypropylcellulose) (HPC)); 100 % of control (dose: 200.0 mg/kg/injection, schedule: Q01DX005 (ip), vehicle: Klucel (hydroxypropylcellulose) (HPC)).
